# Results from ChEMBL document CHEMBL5126523, “Recent advances in DDR (DNA damage response) inhibitors for cancer therapy” (Eur J Med Chem, 2022).
# How the values were obtained:
# Wee1-like protein kinase [1] = target: T1, Wee1-like protein kinase (Homo sapiens, UniProt P30291); assay: Inhibition of N-terminal GST-tagged wild-type WEE1 (215 to 646 residues) (unknown origin) expressed in Sf21 insect cells incubated for 60 mins in presence of ATP by ELISA
# [2] = Cmax in ICR mouse at 3 mg/kg, iv measured for 2 to 1440 mins; assay type: ADME, organism-based; design: time upper 1440 min, dose 3 mg/kg, time lower 2 min, route iv; settings: in vivo
# [3] = Tmax in ICR mouse at 3 mg/kg, iv measured for 2 to 1440 mins; assay type: ADME, organism-based; settings: in vivo, time 2-1440 min
# [4] = Half life in ICR mouse at 3 mg/kg, iv measured for 2 to 1440 mins; assay type: ADME, organism-based; settings: in vivo, time 2-1440 min
# [5] = AUC (0 to last) in ICR mouse at 3 mg/kg, iv measured for 2 to 1440 mins; assay type: ADME, organism-based; design: time 2-1440 min, dose 3 mg/kg, route iv; settings: in vivo
# [6] = Cmax in ICR mouse at 10 mg/kg, po measured for 5 to 1440 mins; assay type: ADME, organism-based; design: time upper 1440 min, dose 10 mg/kg, time lower 5 min, route po; settings: in vivo
# [7] = Tmax in ICR mouse at 10 mg/kg, po measured for 5 to 1440 mins; assay type: ADME, organism-based; settings: in vivo, time 5-1440 min
# [8] = Half life in ICR mouse at 10 mg/kg, po measured for 5 to 1440 mins; assay type: ADME, organism-based; settings: in vivo, time 5-1440 min
# [9] = AUC (0 to last) in ICR mouse at 10 mg/kg, po measured for 5 to 1440 mins; assay type: ADME, organism-based; design: time 5-1440 min, dose 10 mg/kg, route po; settings: in vivo
# [10] = Oral bioavailability in ICR mouse at 10 mg/kg measured for 5 to 1440 mins; assay type: ADME, organism-based; settings: in vivo, time 5-1440 min
# [11] = target: T2, Poly [ADP-ribose] polymerase 1 (Homo sapiens, UniProt P09874); assay: Inhibition of PARP1 (unknown origin) incubated for 1 hr by chemiluminescence assay
# [12] = target: Poly [ADP-ribose] polymerase tankyrase-1 (Homo sapiens, UniProt O95271); assay: Inhibition of tankyrase 1 (unknown origin) incubated for 1 hr by chemiluminescence assay
# [13] = target: Poly [ADP-ribose] polymerase tankyrase-2 (Homo sapiens, UniProt Q9H2K2); assay: Inhibition of tankyrase 2 (unknown origin) incubated for 1 hr by chemiluminescence based assay
# [14] = target: T3, Phosphatidylinositol 4,5-bisphosphate 3-kinase catalytic subunit alpha isoform (Homo sapiens, UniProt P42336); assay: Inhibition of PI3K-alpha (unknown origin) incubated for 40 mins in presence of ATP by ELISA
# HCT-116 = assay: Inhibition of cell proliferation in human HCT-116 cells incubated for 72 hrs by SRB assay; assay type: functional, cell-based; settings: HCT-116, 72 h
# HCC1937 = assay: Inhibition of cell proliferation in human HCC1937 cells incubated for 72 hrs by SRB assay; assay type: functional, cell-based; settings: HCC1937, 72 h
# MDA-MB-231 = assay: Inhibition of cell proliferation in human MDA-MB-231 cells incubated for 72 hrs by SRB assay; assay type: functional, cell-based; settings: MDA-MB-231, 72 h
# NCI-H1299 = assay: Inhibition of cell proliferation in human NCI-H1299 cells incubated for 3 days by MTT assay; assay type: functional, cell-based; settings: NCI-H1299, 72 h
# LoVo = assay: Inhibition of cell growth in human LoVo cells assessed as measuring ATP content incubated for 3 days by Cell Titer Glo assay; assay type: functional, cell-based; settings: 72 h
# ATR/ATRIP [15] = target: T4, ATR/ATRIP (Homo sapiens, UniProt Q13535); assay: Inhibition of full-length human recombinant FLAG-tagged ATR/c-Myc-tagged ATRIP using p53 as substrate incubated for 30 mins in presence of ATP by HTRF assay; assay type: protein-complex assay
# ATR/ATRIP [16] = target: T4, ATR/ATRIP; assay: Inhibition of human FLAG-tagged ATR/c-Myc-tagged ATRIP expressed in mammalian expression system using p53 as substrate incubated for 2 hrs by fluorescence based assay
# [17] = target: T5, DNA-dependent protein kinase catalytic subunit (Homo sapiens, UniProt P78527); assay: Inhibition of DNA-PK (unknown origin) assessed as inhibition constant using Glu-Pro-Pro-Leu-Ser-Gln-Glu-Ala-Phe-Ala-Asp-Leu-Trp-Lys-Lys-Lys peptide as substrate incubated for 45 mins in presence of [33P]-ATP by scintillation counting method
# [18] = target: Serine/threonine-protein kinase ATR (Homo sapiens, UniProt Q13535); assay: Inhibition of ATR (unknown origin)
# [19] = target: T6, Serine-protein kinase ATM (Homo sapiens, UniProt Q13315); assay: Inhibition of ATM (unknown origin)
# Homo sapiens [20] = species on record: Homo sapiens; assay: Selectivity index, ratio of IC50 for ATM (unknown origin) to IC50 for ATR (unknown origin)
# Homo sapiens [21] = species on record: Homo sapiens; assay: Selectivity index, ratio of IC50 for ATM (unknown origin) to IC50 for PI3K-alpha (unknown origin)
# Homo sapiens [22] = species on record: Homo sapiens; assay: Selectivity index, ratio of IC50 for ATM (unknown origin) to IC50 for mTOR (unknown origin)
# [23] = target: T3, Phosphatidylinositol 4,5-bisphosphate 3-kinase catalytic subunit alpha isoform; assay: Inhibition of PI3K-alpha (unknown origin)
# [24] = target: Serine/threonine-protein kinase mTOR (Homo sapiens, UniProt P42345); assay: Inhibition of mTOR (unknown origin)
# [25] = target: T5, DNA-dependent protein kinase catalytic subunit; assay: Inhibition of DNA-PK (unknown origin) incubated for 3 hrs by ADP-Glo kinase assay
# [26] = target: T5, DNA-dependent protein kinase catalytic subunit; assay: Inhibition of full-length human DNA-PK expressed in baculovirus expression system using p53 as substrate incubated for 1 hr in presence of ATP by ELISA
# [27] = target: T6, Serine-protein kinase ATM; assay: Inhibition of ATM in human MCF7 cells […] incubated for 1 hr by Cell Western assay; assay type: cell-based
# Wee1-like protein kinase [28] = target: T1, Wee1-like protein kinase; assay: Displacement of tracer 178 from WEE1 (unknown origin) incubated for 1 hr by Lantha Screen assay
# [29] = target: T2, Poly [ADP-ribose] polymerase 1; assay: Inhibition of PARP1 (unknown origin) by ELISA
# T3 sequence (P42336 whole entry, canonical isoform): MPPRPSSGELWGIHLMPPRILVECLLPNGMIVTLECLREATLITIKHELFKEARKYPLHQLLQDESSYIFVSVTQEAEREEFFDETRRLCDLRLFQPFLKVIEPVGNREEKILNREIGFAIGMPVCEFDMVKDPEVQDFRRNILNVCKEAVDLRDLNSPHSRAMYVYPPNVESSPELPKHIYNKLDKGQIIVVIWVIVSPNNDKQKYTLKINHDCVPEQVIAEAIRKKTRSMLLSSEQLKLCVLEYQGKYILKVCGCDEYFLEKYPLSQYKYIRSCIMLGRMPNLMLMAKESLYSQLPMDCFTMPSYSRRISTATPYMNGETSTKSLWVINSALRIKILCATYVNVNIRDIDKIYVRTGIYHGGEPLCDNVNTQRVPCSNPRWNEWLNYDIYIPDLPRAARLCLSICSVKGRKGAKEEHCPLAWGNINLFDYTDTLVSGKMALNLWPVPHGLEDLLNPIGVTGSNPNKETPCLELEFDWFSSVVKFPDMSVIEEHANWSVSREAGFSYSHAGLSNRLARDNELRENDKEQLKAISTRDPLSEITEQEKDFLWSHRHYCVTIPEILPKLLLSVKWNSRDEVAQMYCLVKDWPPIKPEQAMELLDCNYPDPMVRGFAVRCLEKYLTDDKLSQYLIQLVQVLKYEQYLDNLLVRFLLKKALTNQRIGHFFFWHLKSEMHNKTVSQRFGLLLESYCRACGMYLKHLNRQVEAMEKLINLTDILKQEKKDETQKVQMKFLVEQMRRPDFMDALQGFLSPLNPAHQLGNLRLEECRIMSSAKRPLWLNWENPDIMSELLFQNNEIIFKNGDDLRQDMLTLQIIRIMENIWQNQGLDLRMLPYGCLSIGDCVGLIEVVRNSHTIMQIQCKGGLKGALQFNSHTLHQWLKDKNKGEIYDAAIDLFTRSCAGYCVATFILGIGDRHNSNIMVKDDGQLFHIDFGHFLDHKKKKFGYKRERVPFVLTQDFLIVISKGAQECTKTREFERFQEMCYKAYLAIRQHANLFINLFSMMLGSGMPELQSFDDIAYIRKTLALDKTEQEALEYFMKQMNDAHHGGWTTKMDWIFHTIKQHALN
# T4 sequence (Q13535 whole entry): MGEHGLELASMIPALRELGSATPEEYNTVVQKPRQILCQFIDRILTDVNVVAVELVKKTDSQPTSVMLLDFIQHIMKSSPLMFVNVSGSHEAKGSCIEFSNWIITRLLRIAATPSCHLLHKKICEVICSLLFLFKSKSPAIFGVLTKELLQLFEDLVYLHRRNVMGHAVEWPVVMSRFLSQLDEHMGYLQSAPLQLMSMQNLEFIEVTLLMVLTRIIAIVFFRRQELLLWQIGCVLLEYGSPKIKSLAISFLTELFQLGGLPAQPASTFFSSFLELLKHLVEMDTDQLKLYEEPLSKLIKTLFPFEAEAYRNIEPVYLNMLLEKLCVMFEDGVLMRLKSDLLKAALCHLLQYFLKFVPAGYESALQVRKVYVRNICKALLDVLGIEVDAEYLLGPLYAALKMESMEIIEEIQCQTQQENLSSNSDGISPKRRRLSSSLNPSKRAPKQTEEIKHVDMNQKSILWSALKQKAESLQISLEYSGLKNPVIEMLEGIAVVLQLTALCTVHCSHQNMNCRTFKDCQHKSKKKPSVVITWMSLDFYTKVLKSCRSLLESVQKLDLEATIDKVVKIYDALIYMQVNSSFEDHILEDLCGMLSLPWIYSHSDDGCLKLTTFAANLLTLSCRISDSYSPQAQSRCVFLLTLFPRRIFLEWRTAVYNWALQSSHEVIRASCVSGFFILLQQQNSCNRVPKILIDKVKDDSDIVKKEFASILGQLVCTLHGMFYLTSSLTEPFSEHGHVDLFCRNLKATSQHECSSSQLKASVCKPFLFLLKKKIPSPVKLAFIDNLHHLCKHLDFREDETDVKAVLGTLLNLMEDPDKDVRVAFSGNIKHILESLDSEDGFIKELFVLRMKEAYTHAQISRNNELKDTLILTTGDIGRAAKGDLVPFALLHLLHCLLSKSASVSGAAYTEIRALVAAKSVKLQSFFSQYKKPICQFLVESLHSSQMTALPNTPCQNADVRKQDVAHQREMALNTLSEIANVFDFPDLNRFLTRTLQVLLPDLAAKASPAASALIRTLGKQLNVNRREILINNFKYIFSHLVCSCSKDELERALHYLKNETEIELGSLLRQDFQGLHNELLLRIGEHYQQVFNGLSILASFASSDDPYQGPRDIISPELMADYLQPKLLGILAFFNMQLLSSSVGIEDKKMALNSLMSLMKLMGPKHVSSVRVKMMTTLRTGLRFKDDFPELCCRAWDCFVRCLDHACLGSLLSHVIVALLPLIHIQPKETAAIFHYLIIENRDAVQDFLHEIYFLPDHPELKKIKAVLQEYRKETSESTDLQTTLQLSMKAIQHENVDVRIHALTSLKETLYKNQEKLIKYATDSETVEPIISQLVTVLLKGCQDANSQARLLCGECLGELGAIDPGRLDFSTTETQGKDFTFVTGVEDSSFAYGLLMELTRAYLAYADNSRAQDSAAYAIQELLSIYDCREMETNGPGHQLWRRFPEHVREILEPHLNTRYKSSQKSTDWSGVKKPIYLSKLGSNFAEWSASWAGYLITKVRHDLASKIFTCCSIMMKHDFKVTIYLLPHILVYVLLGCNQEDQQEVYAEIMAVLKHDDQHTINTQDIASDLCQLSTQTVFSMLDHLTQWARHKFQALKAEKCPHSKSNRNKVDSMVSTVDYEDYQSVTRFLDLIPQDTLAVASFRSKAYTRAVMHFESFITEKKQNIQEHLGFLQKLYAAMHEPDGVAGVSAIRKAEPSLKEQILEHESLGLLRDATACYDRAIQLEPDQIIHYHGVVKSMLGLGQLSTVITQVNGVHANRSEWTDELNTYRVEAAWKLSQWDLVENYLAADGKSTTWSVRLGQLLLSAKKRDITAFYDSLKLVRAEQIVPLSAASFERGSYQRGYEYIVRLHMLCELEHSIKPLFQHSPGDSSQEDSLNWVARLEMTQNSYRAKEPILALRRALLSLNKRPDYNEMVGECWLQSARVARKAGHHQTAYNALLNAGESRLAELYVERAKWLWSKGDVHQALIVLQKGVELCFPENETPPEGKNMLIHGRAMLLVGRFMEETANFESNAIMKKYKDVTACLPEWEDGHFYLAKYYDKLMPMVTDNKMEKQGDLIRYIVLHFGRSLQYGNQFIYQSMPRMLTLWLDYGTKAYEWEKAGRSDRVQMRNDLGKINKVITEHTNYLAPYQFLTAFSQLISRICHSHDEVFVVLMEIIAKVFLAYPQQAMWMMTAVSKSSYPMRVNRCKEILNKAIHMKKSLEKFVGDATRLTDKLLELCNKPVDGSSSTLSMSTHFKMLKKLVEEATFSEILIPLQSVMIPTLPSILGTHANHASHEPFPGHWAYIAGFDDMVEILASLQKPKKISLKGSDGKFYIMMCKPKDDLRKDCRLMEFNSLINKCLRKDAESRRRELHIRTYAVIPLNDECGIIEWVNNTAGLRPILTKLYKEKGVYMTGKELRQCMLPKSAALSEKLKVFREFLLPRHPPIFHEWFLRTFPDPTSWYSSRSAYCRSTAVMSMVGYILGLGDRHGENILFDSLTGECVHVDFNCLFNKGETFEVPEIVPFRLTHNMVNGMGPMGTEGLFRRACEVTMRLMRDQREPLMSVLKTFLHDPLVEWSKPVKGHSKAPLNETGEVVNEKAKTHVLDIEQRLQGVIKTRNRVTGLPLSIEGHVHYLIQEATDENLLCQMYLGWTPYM
# T4 sequence (Q8WXE1 whole entry, further chain): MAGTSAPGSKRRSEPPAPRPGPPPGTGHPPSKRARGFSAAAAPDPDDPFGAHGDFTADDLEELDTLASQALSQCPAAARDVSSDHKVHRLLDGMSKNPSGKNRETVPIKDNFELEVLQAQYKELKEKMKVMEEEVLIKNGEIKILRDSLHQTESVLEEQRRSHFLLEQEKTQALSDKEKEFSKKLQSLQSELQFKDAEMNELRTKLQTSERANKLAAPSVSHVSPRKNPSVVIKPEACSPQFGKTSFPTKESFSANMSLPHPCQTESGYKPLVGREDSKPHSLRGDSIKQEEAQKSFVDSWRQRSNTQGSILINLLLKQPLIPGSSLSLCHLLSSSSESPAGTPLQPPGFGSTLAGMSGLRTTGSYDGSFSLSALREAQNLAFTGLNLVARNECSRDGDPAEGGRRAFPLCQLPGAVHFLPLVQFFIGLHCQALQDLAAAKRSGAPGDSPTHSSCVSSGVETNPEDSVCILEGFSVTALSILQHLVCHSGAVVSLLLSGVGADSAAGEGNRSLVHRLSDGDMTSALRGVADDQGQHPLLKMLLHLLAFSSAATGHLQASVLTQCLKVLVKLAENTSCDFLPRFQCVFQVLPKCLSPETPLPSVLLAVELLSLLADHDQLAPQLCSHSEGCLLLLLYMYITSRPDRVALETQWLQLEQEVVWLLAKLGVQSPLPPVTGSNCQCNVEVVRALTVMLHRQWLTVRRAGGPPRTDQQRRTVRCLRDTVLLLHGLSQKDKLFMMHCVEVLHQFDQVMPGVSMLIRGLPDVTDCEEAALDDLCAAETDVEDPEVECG
# T1 sequence (P30291 whole entry, the tested form may be a part): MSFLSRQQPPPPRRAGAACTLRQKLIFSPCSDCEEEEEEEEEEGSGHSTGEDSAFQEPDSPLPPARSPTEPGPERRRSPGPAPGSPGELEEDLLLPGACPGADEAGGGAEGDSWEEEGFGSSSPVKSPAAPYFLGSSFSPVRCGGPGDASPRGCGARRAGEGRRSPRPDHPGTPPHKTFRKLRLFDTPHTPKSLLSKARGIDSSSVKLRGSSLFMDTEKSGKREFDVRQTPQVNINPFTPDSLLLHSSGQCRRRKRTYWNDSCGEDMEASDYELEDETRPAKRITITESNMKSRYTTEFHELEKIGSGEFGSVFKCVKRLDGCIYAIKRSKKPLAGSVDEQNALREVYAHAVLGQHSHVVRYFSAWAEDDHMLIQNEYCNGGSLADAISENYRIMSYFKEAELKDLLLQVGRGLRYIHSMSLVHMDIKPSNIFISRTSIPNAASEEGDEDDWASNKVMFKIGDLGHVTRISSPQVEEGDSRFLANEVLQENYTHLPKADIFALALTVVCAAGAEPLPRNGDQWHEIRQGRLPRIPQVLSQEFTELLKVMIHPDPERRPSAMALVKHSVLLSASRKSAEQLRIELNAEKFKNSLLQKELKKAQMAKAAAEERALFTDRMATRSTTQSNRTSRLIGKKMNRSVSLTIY
structure (smiles),measurement,setting,value
C=CCn1c(=O)c2cnc(Nc3ccc(N4C[C@H]5CN(CC6CC6)C[C@H]5C4)cc3)nc2n1-c1ccc(C(C)(C)O)cn1,IC50,Wee1-like protein kinase [1],3.12 nM
same,Cmax,[2],430 nM
same,Tmax,[3],1.8 min
same,half-life,[4],43.8 min
same,AUC(0-t),[5],153 ng·h/mL
same,Cmax,[6],266 nM
same,Tmax,[7],55.2 min
same,half-life,[8],57 min
same,AUC(0-t),[9],326 ng·h/mL
same,bioavailability,[10],63.7%
COc1ccccc1NC(=O)c1ccc(NC(=O)N2CCN(C(=O)c3cc(Cc4n[nH]c(=O)c5ccccc45)ccc3F)CC2)cc1,IC50,[11],0.59 nM
same,IC50,[12],34.8 nM
same,IC50,[13],6.45 nM
Nc1ncc(-c2nc(N3CCOCC3)nc(N3CCN(C(=O)c4cc(Cc5n[nH]c(=O)c6ccccc56)ccc4F)CC3)n2)cn1,IC50,[11],0.78 nM
same,IC50,[14],94 nM
same,IC50,HCT-116,1050 nM
same,IC50,HCC1937,426 nM
same,IC50,MDA-MB-231,1190 nM
C[C@@H]1CN(c2ccc(Nc3cc4c(cn3)C(=O)N(c3c(Cl)cccc3Cl)C3=NCCN34)cc2)C[C@H](C)N1C,IC50,NCI-H1299,105 nM
C[C@@H]1COCCN1c1nc(-c2c(N)ncc3[nH]ccc23)nc2c1OC1CC2(S(C)(=O)=O)C1,IC50,LoVo,1.36 nM
same,IC50,ATR/ATRIP [15],62.1 nM
Nc1cc(C(F)(F)F)c(-c2nc(N3CCOCC3)nc(N3CCN(C(=O)c4cc(Cc5n[nH]c(=O)c6ccccc56)ccc4F)CC3)n2)cn1,IC50,[14],81.7 nM
same,IC50,HCT-116,342 nM
same,IC50,HCC1937,264 nM
same,IC50,MDA-MB-231,3290 nM
C[C@@H]1COC[C@H]2COc3c(nc(-c4ccnc5[nH]ccc45)nc3C3(S(C)(=N)=O)CC3)N21 (stereo partly drawn),IC50,ATR/ATRIP [16],4 nM
same,IC50,LoVo,699 nM
C[C@@H]1COCCN1c1nc(-c2nncc3[nH]ccc23)nc2c1OC1CC2(S(C)(=O)=O)C1,IC50,LoVo,20.3 nM
same,IC50,ATR/ATRIP [15],104 nM
C[C@@H]1CN(c2cc(O[C@H]3CC[C@@H](Nc4ncccn4)CC3)c3nccnc3c2)CCO1,Ki,[17],< 100 nM
Nc1ncc(-c2nc3c(c(N4CCOCC4)n2)CCN(C(=O)c2cc(Cc4n[nH]c(=O)c5ccccc45)ccc2F)C3)cn1,IC50,HCT-116,211 nM
same,IC50,HCC1937,81 nM
same,IC50,MDA-MB-231,443 nM
COc1ccc(NC(=O)c2ccc(NC(=O)N3CCN(C(=O)c4cc(Cc5n[nH]c(=O)c6ccccc56)ccc4F)CC3)cc2)cc1,IC50,[11],0.25 nM
same,IC50,[12],13.5 nM
same,IC50,[13],4.15 nM
CC(C)n1c(=O)n(C)c2cnc3ccc(-c4ccc(OCCCN(C)C)nc4)cc3c21,IC50,[18],> 30000 nM
same,IC50,[19],3.98 nM
same,Ratio IC50,Homo sapiens [20],> 1000
same,Ratio IC50,Homo sapiens [21],> 1000
same,Ratio IC50,Homo sapiens [22],> 1000
same,IC50,[23],> 10000 nM
same,IC50,[24],> 10000 nM
NC(=O)c1cccc2cc(C(=O)N3CCN(c4nc(-c5cnc(N)cc5C(F)(F)F)nc(N5CCOCC5)n4)CC3)oc12,IC50,HCT-116,193 nM
same,IC50,HCC1937,166 nM
same,IC50,MDA-MB-231,3410 nM
Cc1ncc(-c2cc(NC[C@@H](C)c3cccc4c(-c5noc(=O)[nH]5)ccnc34)ncn2)cn1,IC50,[25],39 nM
CN1CCN(c2ccc(Nc3cc4c(cn3)C(=O)N(c3ccccc3Cl)C3=NCCN34)cc2)CC1,IC50,NCI-H1299,154 nM
CN(C)CCCOc1ncc(-c2ccc3ncc4c(c3c2)C2(CCC2)C(=O)N4C)cc1NS(=O)(=O)C(F)(F)F,IC50,[26],1 nM
same,IC50,[27],1 nM
COc1ccc(Nc2cc(-c3ncnc4cc(N5CCOCC5)ccc34)c(F)cc2Cl)nn1,IC50,[25],165 nM
C=CCn1c(=O)c2cnc(Nc3ccc4c(c3)OC[C@@H]3CN(C)CCN43)nc2n1-c1ccc(C(C)(C)O)cn1,IC50,Wee1-like protein kinase [28],2.49 nM
C[C@H]1CN(C(=O)c2cc(Cc3n[nH]c(=O)c4c3CCCC4)ccn2)CCN1C(=O)C(=O)C1CC1,IC50,[29],< 200 nM
